According to PMC4635503, “High-affinity nitrate/nitrite transporters NrtA and NrtB of Aspergillus nidulans exhibit high specificity and different inhibitor sensitivity” (Microbiology, 2015):
Values after ≈ are worked out from the molar mass of the structure shown. “Also recorded” adds a separate entry of the source. Like-named read-outs stand apart in the source and are kept apart here.

What was measured:
NrtA [1] = biological target: T1, NrtA (Emericella nidulans, UniProt P22152); assay: cell-based; parameters: mutant nrtB110 (expressing a functional NrtA); endogenous in cells; host or cells: Aspergillus nidulans mycelium, knockout strain nrtB110, nitrate-induced; species or system Aspergillus nidulans; conditions: for Ki: K i, nrtB110 (NrtA), inhibitor concentration reducing net nitrate uptake rate by 50 % of control, mean ± SE; for nature of inhibition of nitrate transport (Lineweaver–Burk): NrtA (expressed in nrtB110)
T1 sequence (P22152 whole entry): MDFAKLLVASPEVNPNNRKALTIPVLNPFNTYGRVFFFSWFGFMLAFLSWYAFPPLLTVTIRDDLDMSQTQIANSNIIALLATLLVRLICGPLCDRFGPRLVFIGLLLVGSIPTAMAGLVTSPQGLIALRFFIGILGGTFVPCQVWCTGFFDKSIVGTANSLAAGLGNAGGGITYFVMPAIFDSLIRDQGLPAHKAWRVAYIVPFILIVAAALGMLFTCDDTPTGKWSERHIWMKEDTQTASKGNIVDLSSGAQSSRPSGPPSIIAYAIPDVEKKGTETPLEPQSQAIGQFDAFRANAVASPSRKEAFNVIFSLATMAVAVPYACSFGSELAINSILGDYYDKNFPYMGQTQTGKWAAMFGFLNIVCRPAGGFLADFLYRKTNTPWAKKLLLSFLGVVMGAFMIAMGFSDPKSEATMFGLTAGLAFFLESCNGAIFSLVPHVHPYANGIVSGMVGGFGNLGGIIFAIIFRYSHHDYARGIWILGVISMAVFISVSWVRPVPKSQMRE
Experimental: (§1) These were performed on cultures grown in liquid AMM with 5 mM urea as nitrogen source for a total of 6.5 h at 37 °C ([Brownlee & Arst, 1983]). Urea was used as it (i) is a neutral nitrogen source, neither inducing nor repressing nitrate transport, (ii) has been used routinely in the past and (iii) permitted direct comparison with previously published results. […] Transporter activity was induced by the addition of 10 mM sodium nitrate 100 min prior to assay as described previously ([Brownlee & Arst, 1983]). Assays were carried out in triplicate, generally at pH 6.5, on three independently grown cultures for each strain and expressed as nmol nitrate removed from the medium min^ − 1 (mg dried mycelium)^ − 1, as discussed before ([Brownlee & Arst, 1983]; [Kinghorn et al., 2005]; [Unkles et al., 2012]). Both carbonic acid and bicarbonate chemical species can occur at pH 6.5. Thus potential inhibition of nitrate transport by carbonic acid/bicarbonate was tested at pH 6.5 and bicarbonate at pH 8.3.
(§2) To effectively assess net uptake, it is necessary that any export, i.e. simultaneous transport in the reverse direction, is minimal.
(§3) Values of K m and V max were calculated by linear regression of Lineweaver–Burk analyses (1/v against 1/s, where v is net uptake and s is substrate concentration). The kinetic values of nitrate transport by the WT and mutants were compared with those from a previous report ([Unkles et al., 2001]). […] Therefore the kinetic values in the absence of inhibitors from the present study were used as control values. Each K i value was determined by regression of the rates of net nitrate uptake transport versus the range of concentrations of a particular inhibitor: linear or nonlinear regression was used, depending on which type provided the highest r ^2 value. Calculated from each regression was the concentration of the inhibitor that reduced net nitrate uptake rate by 50 % of the control (without inhibitor) rate, which was assessed as the K i value. Lineweaver–Burk analyses were carried out to determine the nature of the inhibition of nitrate transport for each inhibitor.

NrtB [2] = format: cell-based, Aspergillus nidulans; conditions: for nature of inhibition of nitrate transport (Lineweaver–Burk): NrtB (expressed in nrtA1); for Ki: nrtA1 (NrtB), inhibitor concentration reducing net nitrate uptake rate by 50 % of control, mean ± SE
Experimental: as §1, §2, §3

NrtB [3] = system: NrtB; parameters: method as in Brownlee & Arst (1983); conditions: crnA1 (nrtA1) mutant, 1 mM chlorate, cells grown for 6 or 17 h; ref Brownlee & Arst (1983); cited from earlier work
[4] = system: A. nidulans WT strain (NrtA, NrtB); assay: MIC growth test on solid AMM, WT strain; format: cell-based, Aspergillus nidulans; conditions: Aspergillus nidulans
Experimental: (§4) Fungal growth tests were carried out in standard Petri dishes containing defined Aspergillus minimal medium (AMM) agar ([Cove, 1976]), with sodium nitrate or proline as the sole nitrogen source, at 1 or 10 mM concentration. Strains were tested for inhibition by bicarbonate, formate, oxalate, chlorite, sulphite (all purchased as the sodium salt), chlorate (potassium salt), malonate (acid form) or caesium (chloride salt). Stock aqueous solutions of inhibitors were adjusted to pH 6.5 and prepared immediately before use. It should be noted that at pH 6.5, bicarbonate is in approximately 50 % equilibrium with carbonic acid. […] Cultures were incubated routinely at 37 °C for 48 h, and the growth response was scored.
(§5) Each treatment was carried out in five replicates. […] As caesium was utilized as a chloride salt, a control for potential inhibition by chloride was assessed, by growth on 100 mM sodium chloride (Fig. 4).

NrtA [5] = biological target: T1, NrtA; parameters: mutant nrtB110 (expressing a functional NrtA); endogenous in cells; host or cells: Aspergillus nidulans mycelium, knockout strain nrtB110, nitrate-induced; method as in Zhou et al. (2000); conditions: NrtA expressed in Xenopus oocytes; ref Zhou et al. (2000); cited from earlier work
NrtA, NrtB (WT strain) [6] = system: NrtA, NrtB (WT strain); parameters: method as in Brownlee & Arst (1983); conditions: 1 mM chlorate, cells grown for 6 or 17 h, ref Brownlee & Arst (1983); cited from earlier work
[7] = system: A. nidulans mutant nrtB110 (functional NrtA); assay: microbe, parasite or virus in culture; format: cell-based, Aspergillus nidulans; conditions: nrtB110 (NrtA)
Experimental: as §4, §5

NrtA, NrtB (WT strain) [8] = assay: Net nitrate uptake assay and kinetics, WT strain; format: cell-based, Aspergillus nidulans; conditions: WT (NrtA, NrtB), inhibitor concentration reducing net nitrate uptake rate by 50 % of control, mean ± SE
Experimental: as §1, §2, §3

[9] = system: nitrate transport by NrtA and NrtB; assay: Net nitrate transport inhibition assays, strain not specified; format: cell-based, Aspergillus nidulans; conditions: net nitrate transport; data not shown
Experimental: as §1, §2

[10] = system: A. nidulans mutant nrtA1 (functional NrtB); assay: microbe, parasite or virus in culture; format: cell-based, Aspergillus nidulans; conditions: Aspergillus nidulans
Experimental: as §4, §5

[11] = system: A. nidulans double mutant tbl110 (nrtA747 nrtB110, neither transporter); assay: microbe, parasite or virus in culture; format: cell-based, Aspergillus nidulans; conditions: T110 (neither transporter)
Experimental: as §4, §5

NitA = conditions: data not shown
[12] = 1 mM nitrate as sole nitrogen source, solid AMM, 37 °C
[13] = 1 mM proline as sole nitrogen source
[14] = 10 mM proline as sole nitrogen source
[15] = Aspergillus nidulans, 1 mM nitrate as sole nitrogen source
[16] = Aspergillus nidulans, 10 mM proline as sole nitrogen source
[17] = 10 mM nitrate as sole nitrogen source
[18] = Aspergillus nidulans, 1 mM proline as sole nitrogen source

[O-][Cl+2]([O-])O [Chlorate, chlorate]
Ki (NrtA [1]): 29.3 ± 2.8 mM | nature of inhibition of nitrate transport (Lineweaver–Burk) (NrtA [1]): competition with nitrate | nature of inhibition of nitrate transport (Lineweaver–Burk) (NrtA [1]; listed as chlorate): competitive inhibitor | activity at 10000 µM (NrtA [1]; read-out: net nitrate transport activity retained): 65% | nature of inhibition of nitrate transport (Lineweaver–Burk) (NrtB [2]): non-competitive inhibition | nature of inhibition of nitrate transport (Lineweaver–Burk) (NrtB [2]; listed as chlorate): non-competitively | Ki (NrtB [2]): 44.3 ± 2.3 mM | Ki (NrtB [2]; listed as chlorate): ~44 mM | net nitrate transport activity retained (NrtB [2]; nrtA1 (functional NrtB), 10 mM chlorate, data not shown): 93% | reduction of nitrate transport (NrtB [3]): 80% | MIC [4, 12]: 100000 µM (≈ 8450 µg/mL) | MIC [4, 13]: 50000 µM (≈ 4220 µg/mL) | MIC [4, 14]: 25000 µM (≈ 2110 µg/mL) | substrate / transport by NrtA in oocytes (NrtA [5]): did not, however, observe transport | reduction of nitrate transport (NrtA, NrtB (WT strain) [6]): 80% | MIC [7, 15]: 50000 µM (≈ 4220 µg/mL) | MIC [7, 16]: 50000 µM (≈ 4220 µg/mL) | Ki (NrtA, NrtB (WT strain) [8]): 29.9 ± 3.7 mM | Ki (NrtA, NrtB (WT strain) [8]; listed as chlorate): ~30 mM

[O-][Cl+]O [Chlorite, chlorite]
Ki (NrtA [1]): 0.49 ± 0.01 mM | nature of inhibition of nitrate transport (Lineweaver–Burk) (NrtA [1]): competitive; also recorded: competition | nature of inhibition of nitrate transport (Lineweaver–Burk) (NrtB [2]): non-competitive inhibition | Ki (NrtB [2]): 0.34 ± 0.02 mM | MIC [4, 12]: 200 µM (≈ 13.7 µg/mL) | MIC [4, 13]: 500 µM (≈ 34.2 µg/mL) | MIC [4, 17]: 500 µM (≈ 34.2 µg/mL) | MIC [4, 14]: 1000 µM (≈ 68.5 µg/mL) | substrate / transport by NrtA in oocytes (NrtA [5]): substrate | concentration sufficient to prevent transport of nitrate completely [9]: 1 mM | MIC ([10]; 1 mM nitrate as sole nitrogen source): 200 µM (≈ 13.7 µg/mL) | MIC [10, 13]: 500 µM (≈ 34.2 µg/mL) | MIC [10, 17]: 500 µM (≈ 34.2 µg/mL) | MIC [10, 14]: 2000 µM (≈ 137 µg/mL) | MIC [7, 15]: 100 µM (≈ 6.85 µg/mL) | MIC [7, 18]: 500 µM (≈ 34.2 µg/mL) | MIC ([7]; Aspergillus nidulans, 10 mM nitrate as sole nitrogen source): 500 µM (≈ 34.2 µg/mL) | MIC [7, 16]: 3000 µM (≈ 205 µg/mL) | MIC [7, 14]: 3000 µM (≈ 205 µg/mL) | MIC [11, 18]: > 500 µM | MIC [11, 16]: 5000 µM (≈ 342 µg/mL) | MIC [11, 13]: >500 µM | Ki (NrtA, NrtB (WT strain) [8]): 0.35 ± 0.02 mM | substrate for nitrite transporter NitA (NitA): significant substrate
